Test results: paper PMC12260939, “Radiosynthesis and Evaluation of ^11C‑Labeled Imidazolyl Pyrimidine Derivatives for Positron Emission Tomography Imaging of Glycogen Synthase Kinase‑3” (ACS Pharmacology & Translational Science, 2025)
In brackets after ≈: the same amount, converted by molar mass.

What was measured:
human recombinant GSK3β = human recombinant GSK3β (Homo sapiens, UniProt P49841); assay: GSK3β scintillation proximity assay (SPA), inhibition of kinase activity; assay type: biochemical
Method: The inhibition of GSK3β activity is assessed using a scintillation proximity assay (SPA) in a 96-well microtiter plate format. The assay utilizes purified human recombinant GSK3β enzyme (∼1 nM active), [γ-^33P]-ATP (0.04 μCi), and a biotinylated peptide substrate (Biotin-[…](PO3H2)-PQL) at a final concentration of 2 μM. Reactions are carried out in an assay buffer containing MOPS, EDTA, β-mercaptoethanol, Brij 35, glycerol, and BSA, and preincubated for 10–15 min at room temperature. Inhibitor testing is conducted in duplicate using 10 different concentrations. The kinase reaction is initiated by adding ATP (1 μM final) in the presence of 50 mM Mg(Ac)2. After a 15 min incubation at room temperature, the reaction is terminated by adding a solution (25 μL) containing 5 mM EDTA, 50 μM ATP, 0.1% Triton X-100, and 10 mg/mL streptavidin-coated SPA beads, followed by the addition of distilled water (50 μL). After a 6-h incubation, bound radioactivity is measured using a MicroBeta Trilux liquid scintillation counter (1450 MicroBeta Trilux, Wallac). Data are analyzed using nonlinear regression with variable slope (GraphPad Prism or Excel Fit), and results are reported as Ki values calculated via the Cheng-Prusoff equation.

GSK-3 [1] = assay: Radioligand saturation binding assay with tritiated ligands in hippocampal membranes; parameters: species or system Sprague–Dawley rat; conditions: tritiated ligand, hippocampus of SD rat brains
Method: The pharmacology and physicochemical properties of compounds 13a–13e are depicted in Table . To evaluate binding affinities, saturation binding assays using tritiated ligands [^3H]13a, [^3H]13c, [^3H]13d, [^3H]13e (Scheme S1) were performed using the hippocampal tissue of Sprague–Dawley (SD) rat brains. As depicted in Table A, total binding (TB), nonspecific binding (NSB), and specific binding (SB) of the respective tritiated ligands were measured with increasing concentrations of the radioligands. The dissociation constant (Kd) and capacity (B max) of each radioligand were calculated to confirm their binding affinity.
For membrane preparation, hippocampal tissue from adult rats (Sprague–Dawley) was dissected out, weighed, and frozen in 0.32 M sucrose at −70 °C. On the experiment day, the tissue was thawed, homogenized in 50 mM Tris, 5 mM EDTA (pH 7.4) and then centrifuged at 48 000 xg for 15 min at +4 °C. The pellet was diluted in binding buffer (50 mM Tris, 4 mM MgCl2, 1 mM EDTA pH 7.4) to a final concentration of 2.5 mg w.w./mL. Saturation binding experiments were performed in duplicate, with each tube containing 1 mg w.w. in 0.5 mL binding buffer and 0.1 – 17 nM (11–12 concentrations) of radioligand. Nonspecific binding was measured by adding 10 μM AR-A014418. The assays were incubated for 2–3 h at room temperature and terminated by quick filtration using Whatman GF/B filters pretreated with 0.3% polyethylenimine on a Brandel cell harvester. Radioactivity was measured with a Packard Tri-Carb 2900TR liquid scintillation counter, and data were processed by nonlinear regression analyses using PRISM 4.03.

[2] = Apparent permeability (Papp A-B) and efflux ratio; assay type: in vitro ADME
Method: (§1) Multiparameter optimization (MPO) and brain/plasma concentration at steady-state (logBB) are widely used to predict BBB permeability. […] A detailed ADME/PK (absorption, distribution, metabolism, excretion and pharmacokinetics) profiling was conducted, and the results are listed in Table . […] These values meet the standards that BBB permeability is considered high if Papp A–B is ≥ 3.0 × 10^–6 cm/s and the efflux ratio is <3.0.

[3] = Unbound fraction in brain (fu brain); assay type: in vitro ADME
Method: as §1

Solubility = assay type: physicochemical; conditions: in dry DMSO at pH = 7.4
Method: as §1

Protein binding (% free) = assay type: in vitro ADME; conditions: read-out: mean Prot binding (% free)
[4] = Intrinsic clearance (CLint); assay type: in vitro ADME; conditions: cells (cell type not named); read-out: median CLint
[5] = Pharmacokinetics: half-life and bioavailability; conditions: in vivo
hERG channel = hERG channel (Homo sapiens, UniProt Q12809); assay: hERG channel inhibition
GSK-3β = assay: In vitro autoradiography on rat brain tissue sections; assay type: binding; conditions: rat brain sections, baseline
Method: In the next step, we performed in vitro autoradiography studies on rat brain tissue sections to investigate the binding selectivity and distribution of compounds [^3H]13a–13e (Figure ). […] These findings support the potential of this compound series for further development as GSK-3β-targeted neuroimaging probes.
In vitro autoradiography was conducted on 10 μm thick cry-cut tissue sections of rat tissue that had been thaw-mounted onto microscope slides. The brain sections were incubated in 50 mM Tris-HCl buffer at room temperature and then incubated with [^3H]-ligand for 30 min. The sections were rinsed three times for 10 min each in Tris buffer at 1 °C, followed by a quick rinse in deionized water at 1 °C, and then air-dried at room temperature with a fan. The radiolabeled sections and Amersham plastic tritium standards were then exposed to phosphoimager plates (Fuji BAS-TR2040) overnight. Blocking studies were conducted using a 1000-fold excess of the cold reference compounds, and validated GSK-3β inhibitors AR-A014418 and SB-216763. […] This micromolar concentration is consistent with established methods for GSK-3 radioligand autoradiography blocking experiments.

GSK-3 [6] = assay: NHP PET imaging of brain uptake; assay type: in vivo, cynomolgus monkeys; conditions: i.v. bolus, baseline
Source text: (§2) Then, we sought to assess the in vivo PET imaging performance characteristics of [^11C]13a–e in NHPs, and the results are presented in Figure . […] One potential contributor is metabolic instability of those tracers may reduce the amount of intact tracers to cross the BBB. Another important consideration is efflux by ATP-binding cassette (ABC) transporters, such as P-glycoprotein (P-gp) that is highly expressed at the BBB and can actively pump substrates out of the CNS. To investigate whether 13a–e are P-gp efflux substrates, a P-gp inhibition study was conducted. […] To enhance brain uptake in future analogs, various medicinal chemistry strategies could be employed, such as hydrogen bond donor/acceptor optimization, fine-tuning lipophilicity, steric shielding of efflux motifs, and bioisosteric replacements. A potential limitation of this study is the lack of blood sampling during the PET scans, which precluded assessment of [^11C]13e plasma concentrations following tariquidar pretreatment. […]
(§3) PET experiments were conducted on anesthetized healthy cynomolgus monkeys, following approval from the Stockholm Animal Research Ethical Committee (Dnr. 4820/06–600). […] The monkeys’ heads were stabilized with a fixation device, and body temperature was regulated with a Bair Hugger model 505 (Arizant Healthcare, MN, USA) and continuously monitored using an esophageal thermometer. […]

P-glycoprotein (P-gp) = assay: P-gp inhibition PET study (tariquidar pretreatment) in NHP; assay type: in vivo, cynomolgus monkeys
Source text: as §2, §3

Chain of human recombinant GSK3β (P49841 whole entry): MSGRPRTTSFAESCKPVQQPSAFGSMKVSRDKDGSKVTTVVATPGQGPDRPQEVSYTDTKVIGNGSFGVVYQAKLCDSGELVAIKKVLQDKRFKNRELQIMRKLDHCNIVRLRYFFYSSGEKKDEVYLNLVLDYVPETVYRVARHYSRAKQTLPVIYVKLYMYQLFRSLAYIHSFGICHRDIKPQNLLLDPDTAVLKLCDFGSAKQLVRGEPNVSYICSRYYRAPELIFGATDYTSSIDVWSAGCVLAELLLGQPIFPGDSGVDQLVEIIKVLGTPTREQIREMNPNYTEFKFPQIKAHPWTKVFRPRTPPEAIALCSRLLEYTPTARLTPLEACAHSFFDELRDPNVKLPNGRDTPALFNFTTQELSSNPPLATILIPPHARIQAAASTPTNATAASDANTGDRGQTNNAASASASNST
Chain of hERG channel (Q12809 whole entry): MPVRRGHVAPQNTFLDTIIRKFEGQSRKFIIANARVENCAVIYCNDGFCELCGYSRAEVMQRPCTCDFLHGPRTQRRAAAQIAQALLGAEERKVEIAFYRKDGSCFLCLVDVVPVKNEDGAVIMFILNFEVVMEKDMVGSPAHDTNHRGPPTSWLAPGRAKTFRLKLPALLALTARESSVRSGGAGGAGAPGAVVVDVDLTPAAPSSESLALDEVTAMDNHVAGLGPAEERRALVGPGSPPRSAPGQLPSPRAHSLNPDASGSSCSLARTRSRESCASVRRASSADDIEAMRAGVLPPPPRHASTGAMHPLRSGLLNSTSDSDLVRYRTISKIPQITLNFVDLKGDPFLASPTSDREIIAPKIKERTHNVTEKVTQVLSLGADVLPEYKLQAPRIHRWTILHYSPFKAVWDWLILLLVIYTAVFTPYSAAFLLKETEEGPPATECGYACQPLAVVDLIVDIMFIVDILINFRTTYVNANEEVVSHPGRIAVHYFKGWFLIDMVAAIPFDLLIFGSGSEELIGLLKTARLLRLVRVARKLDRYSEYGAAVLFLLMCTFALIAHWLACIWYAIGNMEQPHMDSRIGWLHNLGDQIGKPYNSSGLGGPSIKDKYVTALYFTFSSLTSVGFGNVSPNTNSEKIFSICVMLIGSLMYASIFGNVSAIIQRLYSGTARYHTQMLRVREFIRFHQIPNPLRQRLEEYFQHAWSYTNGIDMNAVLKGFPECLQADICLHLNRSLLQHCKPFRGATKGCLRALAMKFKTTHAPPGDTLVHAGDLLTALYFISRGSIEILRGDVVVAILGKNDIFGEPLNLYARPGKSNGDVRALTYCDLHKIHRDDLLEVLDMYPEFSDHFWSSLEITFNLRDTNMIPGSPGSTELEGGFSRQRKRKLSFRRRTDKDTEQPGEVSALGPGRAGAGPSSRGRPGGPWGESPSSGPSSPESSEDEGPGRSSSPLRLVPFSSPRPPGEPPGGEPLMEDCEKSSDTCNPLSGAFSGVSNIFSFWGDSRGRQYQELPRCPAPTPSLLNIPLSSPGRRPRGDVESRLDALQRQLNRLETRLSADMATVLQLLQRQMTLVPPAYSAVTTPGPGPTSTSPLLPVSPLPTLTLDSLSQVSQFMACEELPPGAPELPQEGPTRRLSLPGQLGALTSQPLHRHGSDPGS

Q: With CC(=O)N1CCN(Cc2ccc(Nc3ncc(F)c(-c4cnc(C)n4C4CCOCC4)n3)cc2)CC1 [13e] as the compound, how does the Ki (human recombinant GSK3β; GSK-3β, calculated via the Cheng-Prusoff equation) read?
A: 3.33 nM

Q: And the IC50 (human recombinant GSK3β; SPA, 1 μM ATP)?
A: 4.44 nM

Q: What about the Kd (GSK-3 [1]) of the same compound?
A: 2.94 nM

Q: And the “P app A-B” value [2]?
A: 12.7 × 10^–6 cm/s

Q: And the efflux ratio ([2]; not told, Papp B–A/Papp A–B)?
A: 1.4

Q: What about the fraction unbound [3] of the same compound?
A: 0.12

Q: What about the solubility (Solubility) of the same compound?
A: 362 µM (≈ 179 µg/mL)

Q: What about the fraction unbound (Protein binding (% free)) of the same compound?
A: 0.111

Q: And the hepatocyte CLint [4]?
A: 12 µL/min/1e6 cells

Q: What about the bioavailability [5] of the same compound?
A: 10.1%

Q: And the half-life ([5]; read-out: mean t 1/2 (converted))?
A: 1.73 h

Q: What about the IC50 (hERG channel) of the same compound?
A: 20500 nM

Q: What about the “regional binding in autoradiography” value (GSK-3β; by brain region) of the same compound?
A: high binding in the cortex and hippocampus, moderate uptake in the striatum and cerebellum, and relatively low binding in the thalamus

Q: What about the “radioactive accumulation / distribution in autoradiography” value (GSK-3β; tritiated ligand) of the same compound?
A: highest and most regionally distinct uptake

Q: And the “brain uptake (PET)” value (GSK-3 [6])?
A: relatively higher signals in the brain

Q: What about the P-gp substrate status (P-glycoprotein (P-gp); NHP PET) of the same compound?
A: P-glycoprotein substrate

Q: And the “brain uptake after P-gp inhibition” value (P-glycoprotein (P-gp); NHP, Tariquidar 6 mg/kg)?
A: significantly increased the brain uptake
